Read-outs that look alike come from different tables or passages of the source.
How the values were obtained:
acute heat pain response = format: in vivo, mice
[1] = system: CFA-induced mechanical allodynia; parameters: species or system mice; conditions: mouse, in vivo
[2] = system: formalin-induced spontaneous pain behaviors; format: in vivo, mice
[3] = system: capsaicin-induced nociceptive behavior; assay: Capsaicin-induced nociception; format: in vivo, mice; conditions: 100 μg/kg i.m., 30 min before intraplantar capsaicin 1 μg; 5-min observation
Procedure: On the day of testing, ICR male mice were treated by intramuscular injection with equal volume of saline, H4 (10 and 30 μg/kg i.m.), or a positive control in the form of the potent Nav1.7 antagonist PF-05198007 (100 μg/kg i.m.) ([35]). Thirty minutes following test article treatment, animals were subjected to intraplantar injection of 1 μg of capsaicin in a volume of 20 μl of 5% EtOH in saline into the right hind paw. Immediately after the capsaicin injection, the total time spent engaged in licking of the injected hind paw was manually recorded over a 5-min period. All dosing and scoring activities were conducted by experimenters who were fully blinded to treatment conditions.

hNav1.7 mutants = format: cell-based, human

## CN1CC[C@]23c4c5ccc(O)c4O[C@H]2[C@@H](O)C=C[C@H]3[C@H]1C5 [morphine]
Acute heat pain response; mouse, in vivo, SD
  hot plate latency: 17.0 ± 0.9 s
[1]
  duration of anti-allodynic effect: 2 h
  paw withdrawal threshold compared with saline (in words): significantly enhanced
[2]; mouse, in vivo
  paw licking time, early phase: 110.3 ± 12.9 s
  paw licking time, late phase: 86.7 ± 8.5 s

## Nc1[nH]ncc1-c1cc(Cl)ccc1Oc1cc(F)c(S(=O)(=O)Nc2cscn2)cc1Cl [PF-05089771]
[3]
  capsaicin-elicited paw licking response (in words): significantly blocked

## Hainantoxin-III [Compound 1]
Acute heat pain response; 100 μg/kg i.p., 1 h after treatment, plate 55 °C, mean ± SD, n = 5 to 8
  hot plate latency: 15.1 ± 0.9 s
[2]; 100 μg/kg i.m., 30 min before formalin, early phase 0-10 min, control 145.2 ± 6.9 s
  paw licking time, early phase: 68.1 ± 9.7 s
[2]; 100 μg/kg i.m., 30 min before formalin, late phase 15-35 min, control 224 ±16.7 s
  paw licking time, late phase: 71.0 ± 13.0 s
hNav1.7 mutants
  affinity for hNav1.7 mutants versus WT hNav1.7 (in words): did not change significantly

— paper PMC7988488 (The Journal of Biological Chemistry, 2021)
